{"source": "patent US9363996B2", "about": "“Compositions and method for blocking ethylene response in field crops using 3-(cy-clopropyl-l-enyl)-propanoic salt” (Yissum Research Development Company of the Hebrew …, priority 2009, dated 2016)", "key": {"[1]": {"test_system": "wheat plants", "experiment": "Ethephon-induced flag leaf epinasty of wheat plants after spike heading", "type": "in vivo, wheat (Triticum turgidum var. 'Gdera')", "settings": "WS-CPD 135 and 415 μg mL^−1 pretreatment; Ethephon 750 μL L^−1", "procedure": "(1) Abscission—This is a very sensitive model system for studying the effects of plant hormones. Ethylene induces the process of abscission, while auxin delays it. In the laboratory the experimental system is based on plant organ explants, which include the abscission zone. Abscission is induced by exposure to ethylene and at the termination of the experiment the number of abscised organs, usually either leaf blades or petioles are counted and the fraction of abscission is calculated. In the case of fruit, the decrease in fruit retention force is analyzed. In cotton, when WS-CPD (the ethylene-action antagonist herein disclosed) is tested, the whole plants or explants are pretreated by spraying with the antagonist, dissolved in a phosphate buffer solution (10-20 mM, pH 7.0) including 0.1% commercially available Kinetic™ as surfactant, and left to incubate for a predetermined time, usually between 6 and 24 h. […] At the end of the experiment the percentage of abscission is determined. […] At the end of the experiment a dimethylsulfoxide (DMSO) extract of the plant tissue is prepared, and the chlorophyll content of the extract is determined by spectrophotometric analysis. […] The extent of ethylene-induced epinasty of leaves is determined by measuring the change of the angle between the petiole and the stem shoot or blade. […]"}, "[2]": {"experiment": "pKa and ionisation state", "type": "physicochemical", "text": "The IR spectrum (FIG. 60), UV-VIS spectrum (FIG. 61), and potentiometric titration (FIG. 62) are all consistent with the structure given above for WS-CPD. The IR peak of WS-CPD at C1=1773 cm^−1, and the peak of the C═O stretch in the IR and the UV-VIS peak is λmax 206nm.\nThus, under the normal conditions of use, e.g., pH 7.6-7.8, more than 99% of the compound is present in the anion form. […] The XRD pattern was obtained in a Rigaku Ultima sealed tube theta-theta diffractometer operating at a power level of 1.6 kW, with a step size of 0.02°, angular range of 10-60°, and speed of 0.5°/min. Analysis of the XRD pattern was performed using the Jade 8 program (MDI, Inc.). From the diffraction pattern, it appears that the powdered material is not homogeneous, but rather that there appear to be three distinct structural forms present, namely, an amorphous form, a poor quality crystalline form, and a crystalline form. The presence of the amorphous form is indicated by the prominent diffuse peak centered at 2θ˜23°. Superimposed on this broad peak are a number of sharp peaks, indicating the presence of a crystalline form. […] The effective crystallite sizes of the crystalline form were calculated using the Scherrer formula and found to be in the range of 300-700 Å. […] The following volume fractions were measured: amorphous—57.5%; poorly crystalline—39.5%; crystalline—3%. […]"}, "[3]": {"test_system": "wheat plants", "experiment": "Wheat grain yield, 450 ml pots in peat-based medium", "type": "in vivo, wheat (Triticum turgidum var. 'Gdera')", "settings": "one spray WS-CPD 120 μl L^−1 (so in the source) at milky stage II", "procedure": "In another experiment the wheat plants were grown in 450 ml pots in a peat-based medium. The plants were sprayed once with WS-CPD (120 μl L^−1) at milky stage II, 7 months after germination. The results confirmed previous results, showing a −15% increase in grain yield over the weight of the grains of untreated control plants (FIG. 54). This is also evident when calculating the distribution of grain weight (as percentage of the total number of grains) and comparing them with grain weight distribution from control plants."}, "[4]": {"test_system": "wheat plants", "experiment": "Ethephon-induced chlorophyll degradation in wheat leaves, glumes and chaffs", "type": "in vivo, wheat (Triticum turgidum var. 'Gdera')", "settings": "for Ethephon-induced decrease in the content of chlorophyll: WS-CPD 45 μg mL^−1", "procedure": "(1) Abscission—This is a very sensitive model system for studying the effects of plant hormones. Ethylene induces the process of abscission, while auxin delays it. In the laboratory the experimental system is based on plant organ explants, which include the abscission zone. Abscission is induced by exposure to ethylene and at the termination of the experiment the number of abscised organs, usually either leaf blades or petioles are counted and the fraction of abscission is calculated. In the case of fruit, the decrease in fruit retention force is analyzed. In cotton, when WS-CPD (the ethylene-action antagonist herein disclosed) is tested, the whole plants or explants are pretreated by spraying with the antagonist, dissolved in a phosphate buffer solution (10-20 mM, pH 7.0) including 0.1% commercially available Kinetic™ as surfactant, and left to incubate for a predetermined time, usually between 6 and 24 h. The plants or explants are then further exposed for 24 h to ethylene gas (5 to 20 μL L^−1). The plants or explants are then ventilated and incubated for the required time under controlled conditions. At the end of the experiment the percentage of abscission is determined. (2) Chlorophyll degradation—This is a standard model for studying senescence. Plant material (whole plants, excised leaves or leaf discs) are pretreated. In cotton, tobacco and wheat, when WS-CPD is tested, the whole plants or explants are pretreated by spraying with the antagonist, dissolved in phosphate buffer solution (10-20 mM, pH 7.0) including 0.1% commercially available Kinetic™ surfactant, and left to incubate for a predetermined time, usually between 6 and 241. The plants or explants are then further exposed for 24 h to ethylene gas (1 to 100 μL L^−1), or sprayed with Ethephon™ (wheat; 250 to 750 μL L^−1). The plants or explants are then ventilated and incubated for the required time under controlled conditions. At the end of the experiment a dimethylsulfoxide (DMSO) extract of the plant tissue is prepared, and the chlorophyll content of the extract is determined by spectrophotometric analysis. The chlorophyll content is reported either on a fresh, dry weight basis, or on a surface area basis. (3) Epinasty—This is also one of the classical methods for studying ethylene effects in plants. The extent of ethylene-induced epinasty of leaves is determined by measuring the change of the angle between the petiole and the stem shoot or blade. After exposure of the intact plant to ethylene, the upright grown leaves bend downward. The increase in the angle values (degrees) between petiole and the stem is used as a measure of the effect of the ethylene. When WS-CPD is tested on cotton and wheat plants, the whole plants are pretreated by spraying with the antagonist dissolved in phosphate buffer solution (10-20 mM, pH 7.6) including 0.1% Kinetic™ as surfactant, and left to incubate for a predetermined time, usually between 6 and 24 h. The plants are then further exposed for 24 h to ethylene gas (cotton, 5 to 10 μL L^−1), or sprayed with Ethephon™ (wheat, 250 to 750 μL L^−1). The plants are then ventilated and incubated for the required time under controlled conditions. The epinastic effect is expressed by measuring the degree values of the downward curvature between the blade and petiole (cotton, FIGS. 1-3) or between the blade and the stem (wheat, FIGS. 31 and 32). (4) Wheat Grain yield—This is a common test of the effects of exposure of monocot plants either to environmental stresses such as drought that induce senescence by increasing endogenous ethylene production. Excessive internal or external ethylene will accelerate senescence which will lead to reduced grain yield. In this project the intact plants were grown in the greenhouse up to the spike hading at milky stage I and II. The plants were then sprayed with the dissolved WS-CPD in phosphate buffer solution (10 mM, pH 7.6) including 0.1% Kinetic™ as surfactant. Young Cotton Seedlings […]"}}}
{"smiles": "O=C([O-])CCC1=CC1.[Na+]", "note": "[WS-CPD, 3-cyclopropyl-1-enyl-propanoic sodium salt]", "values": [{"measurement": "Ethephon-induced flag leaf epinasty", "setting": "[1]", "value": "partly protected"}, {"measurement": "pKa", "setting": "[2]; ambient temperature", "value": "> 4.5"}, {"measurement": "fraction of the compound present in the anion form", "setting": "[2]; pH 7.6-7.8", "value": "more than 99%"}, {"measurement": "increase in grain yield over untreated control plants", "setting": "[3]", "value": "−15", "unit": "%"}, {"measurement": "Ethephon-induced chlorophyll degradation in the glumes and chaffs", "setting": "[4]; WS-CPD 62 μg mL^−1, Ethephon 250 μL L^−1", "value": "completely reversed"}, {"measurement": "decrease of chlorophyll content in the flag leaf", "setting": "[4]; WS-CPD 312 μg mL^−1, Ethephon 250 μL L^−1, milky stage I", "value": "almost completely antagonized"}, {"measurement": "chlorophyll decrease induced by Ethephon", "setting": "[4]; WS-CPD 415 μg mL^−1, Ethephon 750 μL L^−1, both types of leaves, milky stage I", "value": "only slightly antagonized"}, {"measurement": "Ethephon-induced decrease of chlorophyll", "setting": "[4]; WS-CPD 12 to 62 μg mL^−1, milky stage I, mainly flag leaf, also leaf II", "value": "significantly reduced"}, {"measurement": "effect on chlorophyll in leaves treated with Ethephon", "setting": "[4]; WS-CPD 15 to 135 μg L^−1 (so in the source), Ethephon 750 μL L^−1, milky stage II", "value": "not effective"}, {"measurement": "decrease in the chlorophyll titer in the treated spike-chaffs", "setting": "[4]; WS-CPD 15 to 135 μg L^−1 (so in the source), Ethephon 750 μL L^−1, milky stage II, insignificant", "value": 3, "unit": "%"}, {"measurement": "Ethephon-induced decrease in the content of chlorophyll", "setting": "[4]; chaffs, Ethephon 750 μL L^−1", "value": "markedly antagonized"}, {"measurement": "increase of chlorophyll content above control untreated plants", "setting": "[4]; chaffs, WS-CPD 62 μg mL^−1, Ethephon 250 μL L^−1", "value": 10, "unit": "%"}, {"measurement": "Ethephon-induced decrease in the content of chlorophyll", "setting": "[4]; glumes, Ethephon 750 μL L^−1", "value": "much less effective"}, {"measurement": "increase of chlorophyll content above control untreated plants", "setting": "[4]; glumes, WS-CPD 62 μg mL^−1, Ethephon 250 μL L^−1", "value": 60, "unit": "%"}]}
